Measurements published in US20260274892A1, “MACROCYCLIC BROAD SPECTRUM ANTIBIOTICS” (RQx Pharmaceuticals, Inc., priority 2017, published 2026).

What was measured:
[1] = tested on: Escherichia coli ATCC 25922; experiment: Minimum inhibitory concentration (MIC), CLSI broth micro-dilution, E. coli; type: cell-based; conditions: Escherichia coli, ATCC25922, 22 h, Table 6, cation adjusted Mueller Hinton Broth + 0.002% Tween-80, 35° C.
Outline: (§1)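 Colonies grown 20 h at 35° C on Trypticase Soy agar (MRSA) or Luria agar (E. coli) were suspended in cation-adjusted Mueller Hinton broth with 0.002% Tween-80. Suspensions were added at OD600 0.0005 to 10-point twofold compound dilutions, then incubated 22 h at 35° C.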

[2] = tested on: Methicillin Resistant Staphylococcus aureus strain USA 200; experiment: Minimum inhibitory concentration (MIC), CLSI broth micro-dilution, S. aureus; type: cell-based; conditions: Staphylococcus aureus, MRSA / USA200; Table 6; MRSA USA 200; cation adjusted Mueller Hinton Broth + 0.002% Tween-80; 35° C., 22 hours
Outline: as §1

| MIC [1] [µM] | MIC [2] [µM] | SMILES |
| --- | --- | --- |
| 0.19 | 0.023 | Cc1nc(-c2ccc(C(C)(C)C)cc2)nc(N(C)C)c1C(=O)N[C@@H](CCN)C(=O)N(C)[C@@H]1C(=O)N[C@@H](C)C(=O)N[C@H](C(=O)NCC#N)Cc2ccc(OCCN)c(c2)-c2cc1ccc2OCCN (racemic) [Compound 424, rac-(8S,11S,14S)-3,18-bis(2-aminoethoxy)-N-(cyanomethyl)-11-methyl-14-[methyl-[rac-(2S)-4-amino-2-[[2-(4-tert-butylphenyl)-4-(dimethylamino)-6-methyl-pyrimidine-5-carbonyl]amino]butanoyl]amino]-10,13-dioxo-9,12-diazatricyclo[13.3.1.12,6]icosa-1(18),2(20),3,5,15(19),16-hexaene-8-carboxamide] |
| 4.2 | 0.033 | CCCCCCCCc1ccc(C(=O)N[C@@H](CCC(=O)NC2COC2)C(=O)N(C)[C@@H]2C(=O)N[C@@H](C)C(=O)N[C@H](C(=O)NCC#N)Cc3ccc(OCCN)c(c3)-c3cc2ccc3OCCN)c(C)c1 (racemic) [Compound 447, rac-(2S)-N-methyl-2-[(2-methyl-4-octyl-benzoyl)amino]-N′-(oxetan-3-yl)-N-[rac-(7S,10S,13S)-3,18-bis(2-aminoethoxy)-13-(cyanomethylcarbamoyl)-10-methyl-8,11-dioxo-9,12-diazatricyclo[13.3.1.12,6]icosa-1(19),2,4,6(20),15,17-hexaen-7-yl]pentanediamide] |
| 8 | 0.063 | C[C@@H]1NC(=O)[C@@H](N(C)C(=O)[C@H](CCN)NC(=O)c2cnc(-c3ccc(C(C)(C)C)cc3)nc2O)c2ccc(OCCN)c(c2)-c2cc(ccc2OCCN)C[C@@H](C(=O)NCC#N)NC1=O (racemic) [Compound 419, rac-(8S,11S,14S)-3,18-bis(2-aminoethoxy)-N-(cyanomethyl)-11-methyl-14-[methyl-[rac-(2S)-4-amino-2-[[2-(4-tert-butylphenyl)-4-hydroxy-pyrimidine-5-carbonyl]amino]butanoyl]amino]-10,13-dioxo-9,12-diazatricyclo[13.3.1.12,6]icosa-1(18),2(20),3,5,15(19),16-hexaene-8-carboxamide] |
| 0.37 | 0.023 | Cc1cc(-c2ccc(S(F)(F)(F)(F)F)cc2)ccc1C(=O)N[C@@H](CCN)C(=O)N(C)[C@@H]1C(=O)N[C@@H](C)C(=O)N[C@H](C(=O)NCC#N)Cc2ccc(OCCN)c(c2)-c2cc1ccc2OCCN (racemic) [Compound 202, rac-(8S,11S,14S)-3,18-bis(2-aminoethoxy)-N-(cyanomethyl)-11-methyl-14-[methyl-[rac-(2S)-4-amino-2-[[2-methyl-4-[4-(pentafluoro-lambda6-sulfanyl)phenyl]benzoyl]amino]butanoyl]amino]-10,13-dioxo-9,12-diazatricyclo[13.3.1.12,6]icosa-1(18),2(20),3,5,15(19),16-hexaene-8-carboxamide] |
| 0.25 | 0.047 | CCCCCCc1ccc2cc(C)c(C(=O)N[C@@H](CCN)C(=O)N(C)[C@@H]3C(=O)N[C@@H](C)C(=O)N[C@H](C(=O)NCC#N)Cc4ccc(OCCN)c(c4)-c4cc3ccc4OCCN)cc2c1 (racemic) [Compound 400, rac-(8S,11S,14S)-3,18-bis(2-aminoethoxy)-N-(cyanomethyl)-11-methyl-14-[methyl-[rac-(2S)-4-amino-2-[(7-hexyl-3-methyl-naphthalene-2-carbonyl)amino]butanoyl]amino]-10,13-dioxo-9,12-diazatricyclo[13.3.1.12,6]icosa-1(18),2(20),3,5,15(19),16-hexaene-8-carboxamide] |
| 0.5 | 0.031 | Cc1cc(Oc2ccc(C(C)(C)C)cc2)cc(C)c1C(=O)N[C@@H](CCN)C(=O)N(C)[C@@H]1C(=O)N[C@@H](C)C(=O)N[C@H](C(=O)NCC#N)Cc2ccc(OCCN)c(c2)-c2cc1ccc2OCCN (racemic) [Compound 375, rac-(8S,11S,14S)-3,18-bis(2-aminoethoxy)-N-(cyanomethyl)-11-methyl-14-[methyl-[rac-(2S)-4-amino-2-[[4-(4-tert-butylphenoxy)-2,6-dimethyl-benzoyl]amino]butanoyl]amino]-10,13-dioxo-9,12-diazatricyclo[13.3.1.12,6]icosa-1(18),2(20),3,5,15(19),16-hexaene-8-carboxamide] |
| 0.38 | 0.031 | COc1nc(-c2ccc(C(C)(C)C)cc2)nc(C)c1C(=O)N[C@@H](CCN)C(=O)N(C)[C@@H]1C(=O)N[C@@H](C)C(=O)N[C@H](C(=O)NCC#N)Cc2ccc(OCCN)c(c2)-c2cc1ccc2OCCN (racemic) [Compound 422, rac-(8S,11S,14S)-3,18-bis(2-aminoethoxy)-N-(cyanomethyl)-11-methyl-14-[methyl-[rac-(2S)-4-amino-2-[[2-(4-tert-butylphenyl)-4-methoxy-6-methyl-pyrimidine-5-carbonyl]amino]butanoyl]amino]-10,13-dioxo-9,12-diazatricyclo[13.3.1.12,6]icosa-1(18),2(20),3,5,15(19),16-hexaene-8-carboxamide] |
| 0.064 | 0.012 | Cc1nc(-c2ccc3c(c2)CCCC3(C)C)nc(C)c1C(=O)N[C@@H](CCN)C(=O)N(C)[C@@H]1C(=O)N[C@@H](C)C(=O)N[C@H](C(=O)NCC#N)Cc2ccc(OCCN)c(c2)-c2cc1ccc2OCCN (racemic) [Compound 270, rac-(8S,11S,14S)-3,18-bis(2-aminoethoxy)-N-(cyanomethyl)-11-methyl-14-[methyl-[rac-(2S)-4-amino-2-[[2-(1,1-dimethyltetralin-6-yl)-4,6-dimethyl-pyrimidine-5-carbonyl]amino]butanoyl]amino]-10,13-dioxo-9,12-diazatricyclo[13.3.1.12,6]icosa-1(18),2(20),3,5,15(19),16-hexaene-8-carboxamide] |
| 0.35 | 0.043 | Cc1nc(-c2ccc3c(c2)CCC(C)(C)O3)ncc1C(=O)N[C@@H](CCN)C(=O)N(C)[C@@H]1C(=O)N[C@@H](C)C(=O)N[C@H](C(=O)NCC#N)Cc2ccc(OCCN)c(c2)-c2cc1ccc2OCCN (racemic) [Compound 249, rac-(8S,11S,14S)-3,18-bis(2-aminoethoxy)-N-(cyanomethyl)-11-methyl-14-[methyl-[rac-(2S)-4-amino-2-[[2-(2,2-dimethylchroman-6-yl)-4-methyl-pyrimidine-5-carbonyl]amino]butanoyl]amino]-10,13-dioxo-9,12-diazatricyclo[13.3.1.12,6]icosa-1(18),2(20),3,5,15(19),16-hexaene-8-carboxamide] |
| 0.48 | 0.045 | CCCCCCOc1ccc(-c2cc(-c3ccc(C(=O)N[C@@H](CCN)C(=O)N(C)[C@@H]4C(=O)N[C@@H](C)C(=O)N[C@H](C(=O)NCC#N)Cc5ccc(OCCN)c(c5)-c5cc4ccc5OCCN)cc3)no2)cc1 (racemic) [Compound 380, rac-(8S,11S,14S)-3,18-bis(2-aminoethoxy)-N-(cyanomethyl)-11-methyl-14-[methyl-[rac-(2S)-4-amino-2-[[4-[5-(4-hexoxyphenyl)isoxazol-3-yl]benzoyl]amino]butanoyl]amino]-10,13-dioxo-9,12-diazatricyclo[13.3.1.12,6]icosa-1(18),2(20),3,5,15(19),16-hexaene-8-carboxamide] |
| 8 | 1 | Cc1nc(-n2ccc(C(C)(C)C)cc2=O)nc(C)c1C(=O)N[C@@H](CCN)C(=O)N(C)[C@@H]1C(=O)N[C@@H](C)C(=O)N[C@H](C(=O)NCC#N)Cc2ccc(OCCN)c(c2)-c2cc1ccc2OCCN (racemic) [Compound 319, rac-(8S,11S,14S)-3,18-bis(2-aminoethoxy)-N-(cyanomethyl)-11-methyl-14-[methyl-[rac-(2S)-4-amino-2-[[2-(4-tert-butyl-2-oxo-1-pyridyl)-4,6-dimethyl-pyrimidine-5-carbonyl]amino]butanoyl]amino]-10,13-dioxo-9,12-diazatricyclo[13.3.1.12,6]icosa-1(18),2(20),3,5,15(19),16-hexaene-8-carboxamide] |
| 1.1 | 0.28 | Cc1nc(C#CC(C)(C)C)ccc1C(=O)N[C@@H](CCN)C(=O)N(C)[C@@H]1C(=O)N[C@@H](C)C(=O)N[C@H](C(=O)NCC#N)Cc2ccc(OCCN)c(c2)-c2cc1ccc2OCCN (racemic) [Compound 213, rac-(8S,11S,14S)-3,18-bis(2-aminoethoxy)-N-(cyanomethyl)-11-methyl-14-[methyl-[rac-(2S)-4-amino-2-[[6-(3,3-dimethylbut-1-ynyl)-2-methyl-pyridine-3-carbonyl]amino]butanoyl]amino]-10,13-dioxo-9,12-diazatricyclo[13.3.1.12,6]icosa-1(18),2(20),3,5,15(19),16-hexaene-8-carboxamide] |
| 4.3 | 0.067 | CCCCCc1ccc(-c2nc(C)c(C(=O)N[C@@H](CCN)C(=O)N(C)[C@@H]3C(=O)N[C@@H](C)C(=O)N[C@H](C(=O)NCC#N)Cc4ccc(OCCN)c(c4)-c4cc3ccc4OCCN)o2)cc1 (racemic) [Compound 381, 4-methyl-2-(4-pentylphenyl)-N-[rac-(1S)-3-amino-1-[methyl-[rac-(7S,10S,13S)-3,18-bis(2-aminoethoxy)-13-(cyanomethylcarbamoyl)-10-methyl-8,11-dioxo-9,12-diazatricyclo[13.3.1.12,6]icosa-1(19),2,4,6(20),15,17-hexaen-7-yl]carbamoyl]propyl]oxazole-5-carboxamide] |
| 0.13 | 0.016 | CCCCCCOc1ccc(-c2ncc(C(=O)N[C@@H](CCN)C(=O)N(C)[C@@H]3C(=O)N[C@@H](C)C(=O)N[C@H](C(=O)NCC#N)Cc4ccc(OCCN)c(c4)-c4cc3ccc4OCCN)c(C)n2)cc1 (racemic) [Compound 248, rac-(8S,11S,14S)-3,18-bis(2-aminoethoxy)-N-(cyanomethyl)-11-methyl-14-[methyl-[rac-(2S)-4-amino-2-[[2-(4-hexoxyphenyl)-4-methyl-pyrimidine-5-carbonyl]amino]butanoyl]amino]-10,13-dioxo-9,12-diazatricyclo[13.3.1.12,6]icosa-1(18),2(20),3,5,15(19),16-hexaene-8-carboxamide] |
